Earlier results in US7914812B2, “Wound care dressing and method using same” (priority 2004, dated 2011).

Settings: 25° C.

Row | Solubility ww % (25° C.) | Compound
1 | 72 ww % | OC[C@@H](O)[C@@H](O)[C@H](O)[C@@H](O)CO [Sorbitol]
2 | 66 ww % | OC[C@@H](O)[C@H](O)[C@@H](O)CO [Xylitol]

More lines, now with the values behind:

Row | Compound | Solubility ww % (25° C.)
3 | OC[C@@H](O)[C@@H](O)CO [Erythritol] | 36 ww %
4 | OC[C@@H](O)[C@@H](O[C@@H]1O[C@H](CO)[C@H](O)[C@H](O)[C@H]1O)[C@H](O)[C@@H](O)CO [Lactitol] | 58 ww %
5 | OC[C@@H](O)[C@@H](O[C@H]1O[C@H](CO)[C@@H](O)[C@H](O)[C@H]1O)[C@H](O)[C@@H](O)CO [Maltitol] | 60 ww %
6 | OC[C@@H](O)[C@@H](O)[C@H](O)[C@H](O)CO [Mannitol] | 18 ww %
7 | Isomalt | 28 ww %

Same assay, conditions: at about 37° C., i.e. body temperature; water

Row | solubility | Compound
8 | about 23 grams per 100 grams of water | OC[C@@H](O)[C@@H](O)[C@H](O)[C@H](O)CO [Mannitol]
9 | about 78 grams per 100 grams of water | OC[C@H]1O[C@@](CO)(O[C@H]2O[C@H](CO)[C@@H](O)[C@H](O)[C@H]2O)[C@@H](O)[C@@H]1O [sucrose]
